Columns and labels:
HIV-1 RT mutant P236L = test: single round infection assay, P236L; type: cell-based; conditions: Human immunodeficiency virus 1
HIV-1 RT mutant Y181I = test: single round infection assay, Y181I; type: cell-based; conditions: for IC50: Human immunodeficiency virus 1
HIV-1 RT mutant G190S = test: single round infection assay, G190S; type: cell-based; conditions: Human immunodeficiency virus 1
HIV-1 RT mutant V106A = test: single round infection assay, V106A; type: cell-based; conditions: for IC50: ± SD, n=4; for fold-change of IC50 of the mutant relative to WT: V106A vs WT
Protocol: (§1) The human osteosarcoma cell line, HOS, was obtained from Dr. Richard Schwartz (Michigan State University, East Lansing, MI) and grown in Dulbecco’s modified Eagle’s medium (Invitrogen, Carlsbad, CA) supplemented with 5 % (v/v) fetal bovine serum, 5 % newborn calf serum, and penicillin (50 units/ml) plus streptomycin (50 µg/ml; Quality Biological, Gaithersburg, MD). Virion production and single-round infectivity assays were used to determine antiviral activity (IC50 values) of the compounds as previously described.
(§2) pNLNgoMIVR-ΔEnv.LUC has been described previously. The RT open reading frame was removed from pNLNgoMIVR-ΔEnv.LUC (digestion with SpeI and SalI) and inserted between the SpeI and SalI sites of pBluescript II KS+. Using that construct as the wild-type template, we prepared the following HIV-1 RT mutants using the QuikChange II XL (Stratagene, La Jolla, CA) site-directed mutagenesis protocol kit: L100I, K103N, Y181C, Y188L, H221Y, K103N/Y181C, G190A, G190S, M230L, P236L, L100I/K103N, K103N/P225H, V106A/G190A/F227L, V106A, L234I, V106A/F227L, V106A/L234I, V106A/F227L/L234I, E40K, D67E, K101E, V111A, E138K, M184I, M184V, K101E/M184I, K101E/M184V, E138K/M184I, E138K/M184V, K101P, Y181I, and K101P/V179I. The following sense oligonucleotides were used with matching cognate antisense oligonucleotides (not shown) (Integrated DNA Technologies, Coralville, IA) in the mutagenesis: L100I, 5′-[…]-3′; L100I 2-103, 5′-[…]-3′; K103N, 5′-[…]-3′; Y181C, 5′-[…]-3′; Y188L, 5′-[…]-3′; H221Y, 5′-[…]-3′; G190A, 5′-[…]-3′; G190S, 5′-[…]-3′; P225H, 5′-[…]-3′; F227, 5′-[…]-3′; M230L, 5′-[…]-3′; P236L, 5′-[…]-3′; V106A, 5′-[…]-3′; L234I, 5′-[…]-3′; E40K, 5′-[…]-3′; D67E, 5′-[…]-3′; K101E, 5′-[…]-3′; V111A, 5′-[…]-3′; E138K, 5′-[…]-3′; M184I, 5′-[…]-3′; M184V, 5′-[…]-3′; K101P, 5′-[…]-3′; Y181I, 5′-[…]-3′; K101P/V179I, 5′-[…]-3′. The double mutants K103N/Y181C, K103N/P225H, and L100I/K103N were made using the previously generated K103N mutant and the appropriate oligonucleotides to add the second mutation, Y181C, P225, and L100I respectively. The double mutants V106A/F227L and V106A/L234I were prepared using the previously generated V106A mutant and the appropriate oligonucleotides to add the second mutation, F227L and L234I, respectively. The double mutants K101E/M184I and K101E/M184V were constructed using the previously generated K101E mutant and the appropriate oligonucleotides to add the second mutation, M184I and M184V, respectively. The double mutants E138K/M184I and E138K/M184V were constructed using the previously generated E138K mutant and the appropriate oligonucleotides for the second mutation, M184I and M184V, respectively. The triple mutant V106A/F227L/L234I was made using the previously generated V106A/F227L double mutant and the appropriate oligonucleotides for the third mutation, L234I. The triple mutant V106A/G190A/F227L was constructed in a series of steps using the previously generated V106A mutant and the appropriate oligonucleotides for the second mutation, G190A, to generate the double mutant V106A/G190A, and then the triple mutant was made using double mutant V106A/G190A and oligonucleotides for the third mutation, F227L. The DNA sequence of each construct was verified by DNA sequence determination. The sequences encoding the mutant RTs were then subcloned into pNLNgoMIVR-ΔEnv.LUC (between the KpnI and SalI sites) to produce the mutant HIV-1 constructs. These DNA sequences were also checked independently by DNA sequence determination.
(§3) 10.1186/s12977-016-0244-2 The IC50 values (nM) of RPV and the RPV analogs were determined against the NNRTI resistant mutants were measured by using a single round infection assay, n = 4. The concentrations (nM) are measured by reductions in luciferase reporter activity followed by the standard deviations. […]

WT HIV-1 = test: single round infection luciferase assay, WT HIV-1; type: cell-based; conditions: Human immunodeficiency virus 1
HIV-1 RT mutant Y181C = tested on: HIV-1 RT mutant Y181C; set-up: method as in PMID 23217210; conditions: previous study; cited from earlier work
[1] = tested on: HIV-1 RT mutant V106A/F227L/L234I; test: single round infection assay, V106A/F227L/L234I; type: cell-based; conditions: for fold-change of IC50 of the mutant relative to WT: V106A/F227L/L234I vs WT; for IC50: ± SD, n=4
HIV-1 RT mutant H221Y = tested on: HIV-1 RT mutant H221Y; set-up: method as in PMID 23217210; conditions: previous study; cited from earlier work
HIV-1 RT mutant E40K = test: single round infection assay, E40K; type: cell-based; conditions: for fold-change of IC50 of the mutant relative to WT: E40K vs WT
Protocol: as §1, §2, §3

[2] = tested on: HIV-1 RT mutant E138K/M184I; test: single round infection assay, E138K/M184I; type: cell-based; conditions: for fold-change of IC50 of the mutant relative to WT: E138K/M184I vs WT
[3] = tested on: HIV-1 RT mutant V106A/G190A/F227L; test: single round infection assay, V106A/G190A/F227L; type: cell-based; conditions: for IC50: Human immunodeficiency virus 1; for fold-change of IC50 of the mutant relative to WT: V106A/G190A/F227L vs WT
[4] = tested on: HIV-1 RT mutant K101E/M184V; test: single round infection assay, K101E/M184V; type: cell-based; conditions: for IC50: ± SD, n=4; for fold-change of IC50 of the mutant relative to WT: K101E/M184V vs WT
Protocol: as §1, §2, §3

[5] = tested on: HIV-1 RT mutant V106A/F227L; test: single round infection assay, V106A/F227L; type: cell-based; conditions: V106A/F227L vs WT
HIV-1 RT mutant D67E = test: single round infection assay, D67E; type: cell-based; conditions: for fold-change of IC50 of the mutant relative to WT: D67E vs WT; for IC50: Human immunodeficiency virus 1, D67E, ± SD, n=4
[6] = Human immunodeficiency virus 1, K101E/M184V

Compound	IC50 (HIV-1 RT mutant P236L) [nM]	IC50 (HIV-1 RT mutant Y181I) [nM]	IC50 (HIV-1 RT mutant G190S) [nM]	fold-change of IC50 of the mutant relative to WT (HIV-1 RT mutant V106A)	IC50 (WT HIV-1) [nM]	IC50 (HIV-1 RT mutant Y181C) [nM]	fold-change of IC50 of the mutant relative to WT [1]	IC50 (HIV-1 RT mutant H221Y) [nM]	fold-change of IC50 of the mutant relative to WT (HIV-1 RT mutant E40K)	fold-change of IC50 of the mutant relative to WT [2]	IC50 [3] [nM]	fold-change of IC50 of the mutant relative to WT [3]	IC50 [4, 6] [nM]	fold-change of IC50 of the mutant relative to WT [4]	fold-change of IC50 of the mutant relative to WT [5]	fold-change of IC50 of the mutant relative to WT (HIV-1 RT mutant D67E)	IC50 (HIV-1 RT mutant D67E) [nM]	also measured
Cc1cc(/C=C/C#N)cc(C)c1Nc1nc(Nc2ccc(F)cc2)c2nc[nH]c2n1 [compound 17]	1.2	78.9	0.74 ± 0.11	2	2.2 ± 0.4	< 7	6	< 7	3	2	10.8 ± 2.5	5	8.1	4	19	12	26	fold-change of IC50 of the mutant relative to WT (HIV-1 RT mutant Y181I; Y181I vs WT): 36; IC50 (HIV-1 RT mutant V106A; Human immunodeficiency virus 1, V106A (selected by DOR)): < 5 nM; IC50 (HIV-1 RT mutant V106A; V106A (selected by DOR)): 2.7 ± 0.64 nM; IC50 (HIV-1 RT mutant E40K; Human immunodeficiency virus 1, E40K, ± SD, n=4): 6.4 nM; IC50 ([2]; Human immunodeficiency virus 1, E138K/M184I, ± SD, n=4): 5.2 ± 1.1 nM
Cc1cc(/C=C/C#N)cc(C)c1Nc1nc(Nc2ccc3scnc3c2)c2nc[nH]c2n1 [compound 21]	0.32 ± 0.09	> 100	0.2 ± 0.04	3	0.41 ± 0.1	< 7	10	< 7	2	2	3.8 ± 1.6	9	< 2.5	6	27	9	3.6 ± 0.6	IC50 ([1]; Human immunodeficiency virus 1, V106A/F227L/L234I (selected by DOR)): < 5 nM; IC50 ([1]; V106A/F227L/L234I (selected by DOR)): 4.3 ± 0.8 nM; IC50 ([4]; K101E/M184V): 2.4 ± 0.2 nM
